Tested on: Aedes aegypti (yellow fever mosquitoes)
Test: Repellent activity with respect to mosquitoes, treated forearm in cage (Swiss Tropic Institute method)
Type: in vivo
Settings: 2 ml on 250 cm^2 forearm, 400 mosquitoes in cage, hourly 10 min exposure

O=C(O)CC(O)(CC(=O)O)C(=O)O [PC4, citric acid]
repellent activity with respect to mosquitoes (result in words): surprisingly bad results

Reference: patent publication US7144591B2, “Composition containing citronella java oil and use thereof for repelling insects” (priority 2002, dated 2006)
